For orientation: melting point means the temperature of the solid-liquid transition.

Experimental findings from a melting point compilation (Tetko et al.; mined from patent text by program, amines drawn as free bases though some values may be those of a salt) are described below.

`CC(=O)Nc1ccc(Nc2c([N+](=O)[O-])cc(C(=O)O)cc2S(=O)(=O)NC(C)=O)cc1` yielded a melting point of 175 to 185 °C.

As for `O=[N+]([O-])c1ccccc1N1CCN(Cc2ccccc2)CCN1`, the melting point was in the range of 90 to 92 °C.

`C[C@@H](Nc1ncnc2cc(OCC3CC3)c([N+](=O)[O-])cc12)c1ccccc1`: the melting point was 155 °C.

In the case of `NCCCn1cc(-c2cc3nccnc3[nH]2)c2ccccc21`, the melting point is 170 °C.

As for `CCOC(=O)c1cccc(C)c1S(=O)(=O)NC(=O)Nc1nc(OCC(F)(F)F)nc(N(C)C)n1`, the melting point lay in the range of 134 to 142 °C.

For `CCCCCS(=O)(=O)NC(=O)CCc1ccc(OCCOC)cc1OCc1nc(-c2ccccc2)oc1C`, the melting point lay in the range of 95.9 to 96.7 °C.

Regarding `CC(O)CNCC(O)COc1ccccc1C#N` (stereo unspecified), the melting point came to 108 °C.

As to `O=Cc1ccccc1-c1noc2cc(Cl)ccc12`, the melting point was in the range of 116 to 117 °C.

As to `CC(=O)OC1CSC(Oc2ccc(-c3ccoc3)cc2F)C(OC(C)=O)C1OC(C)=O` (stereo unspecified), the melting point came to 137 °C.

`Nc1nc2ncn(O)c2c(=O)[nH]1`: the melting point is over 300 °C.

`OCc1ncc2n1CCC2` had a melting point of 110 to 120 °C.

In the case of `COc1cccc(CNC(=O)[C@H]2N(C(=O)[C@@H](O)[C@@H](Cc3ccccc3)NC(=O)c3cccc(O)c3C)CSC2(C)C)c1`, the melting point fell in the range of 108 to 110 °C.

Compound `CC(C)(C)c1cc(C(=O)CI)cc(C(C)(C)C)c1O` came in with a melting point of 88 to 89 °C.

`CC(=O)OC1CSC(Oc2cncc(-c3ccncc3)c2)C(OC(C)=O)C1OC(C)=O` (stereo unspecified) displayed a melting point of 138 °C.

The compound `O=C1N(Cc2ccccn2)c2cccc(-c3cncnc3)c2C12COc1cc3c(cc12)CCO3` (stereo unspecified) displayed a melting point of over 200 °C.

For `N#Cc1cc(C2=NOC(c3cc(Cl)cc(Cl)c3)(C(F)(F)F)C2)ccc1-n1cc(Cl)cn1` (stereo unspecified), the melting point was 190 to 191 °C.

Compound `COc1ccc2c(C(C)C(=O)O)cnc(Cl)c2c1` (stereo unspecified) yielded a melting point of 167 to 168 °C.

Regarding `COc1ccccc1-n1c(=O)[nH]c2c(C(N)=O)nc(-c3ccc4nc[nH]c4c3)nc21`, the melting point was 306 °C.

Take `O=C1CC2(CCCC2)CC(=O)N1CCCCN1CCN(C(c2ccc(F)cc2)c2ccc(F)cc2)CC1`: the melting point was in the range of 165 to 169 °C.

Take `N#Cc1cn(-c2ccc(Cl)cc2)c(=O)[nH]c1=O`: the melting point lay within 236 to 239 °C.

With `CCOc1cc(C(=CC#N)c2ccc(NC(C)=O)cc2)ccc1OC`, the melting point was in the range of 175 to 177 °C.

In turn, `Oc1ccc(Oc2cncnc2)cc1` came in with a melting point of 158 °C.

As to `CCN(CC)P(N)(N)=S`, the melting point lay within 54 to 58 °C.

For the compound `O=C(O)c1nc(Sc2ccccc2)ccc1Sc1ccccc1`, the melting point was in the range of 131 to 132 °C.

`CCOC(=O)c1c[nH]c2ccc(C(=O)c3c(C)c(OC)c4ccccn34)cc2c1=O` returned a melting point of 271 °C.

For the compound `Cc1ccc(Nc2cccc(O)c2)cc1`, the melting point lay within 86 to 88 °C.

Turning to `CN(C)C(=O)c1ccncc1-c1nc(-c2ccc(Cl)cc2)cs1`, the melting point turned out to be 195 °C.

As for `O=C(NCc1ccc(Cl)cc1)c1cn2c(CCO)cc3cc(CN4CCOCC4)cc(c1=O)c32`, the melting point is 169 to 172 °C.

Compound `CC(=O)c1ccc(CC(C)OS(=O)(=O)c2ccc(C)cc2)s1` (racemic) had a melting point of 101 to 103 °C.

The compound `CN1C(=O)C2CCCN2Cc2ccccc21` (stereo unspecified) gave a melting point of 120 to 122 °C.

On to `COc1ccc(C(=O)Nc2ccc(Cl)c(Cl)c2)cc1NC(=S)Nc1ccc(S(N)(=O)=O)cc1`, for which the melting point lay within 190 to 193 °C.

`COC(=O)c1cccc(F)c1S(C)(=O)=O` came in with a melting point of 116 °C.

As for `COc1ccc(NC(=O)N2CCc3cc(F)c(Cl)cc32)cc1N1CCN(C)CC1`, the melting point was in the range of 177 to 180 °C.

For the compound `COc1cc2ncc(C#N)c(Nc3ccc4[nH]ncc4c3)c2cc1OC`, the melting point lay within 290 to 295 °C.

The compound `CCN(CC)c1ccc2c(c1)OC(C(F)(F)F)C(C(=O)O)=C2` (stereo unspecified) gave a melting point of 214 to 215 °C.

As for `CN(C)S(=O)(=O)n1c(C(=S)NC(O)C(Cl)(Cl)Cl)nc2cc(Cl)c(Cl)cc21` (stereo unspecified), the melting point is 158 to 160 °C.

The compound `C[C@@H](NC(=O)c1ccc[nH]1)C(=O)N[C@H]1CC(=O)O[C@@H]1OCc1ccccc1` yielded a melting point of 109 to 112 °C.

In turn, `Cc1ccc(C(=O)NC(NC(=NC#N)Nc2ccc(Cl)nc2)C(C)(C)C)cc1` (stereo unspecified) yielded a melting point of 194 to 196 °C.

Turning to `COCCNC(=O)c1nc(C(=O)OC)c2cc(Cc3ccc(F)cc3)cnc2c1OCc1ccccc1`, the melting point came to 94 °C.

With `N#CCCNC(=O)c1cccc(-c2ccc3c(c2)C(Oc2ccc(Cl)cc2Cl)CCC3)c1` (stereo unspecified), the melting point was 150 to 151 °C.

In turn, `CC(C(N)=O)c1ccc2c(c1)oc1ccc(Cl)cc12` (stereo unspecified) gave a melting point of 210 to 211 °C.

For `CC(C)CC(NC(=O)c1cc(F)ccc1SSc1ccc(F)cc1C(=O)NC(CC(C)C)C(=O)O)C(=O)O` (stereo unspecified), the melting point is 246 to 247 °C.

`CC(=O)OC(CCc1cc(C(C)(C)C)c(O)c(C(C)(C)C)c1)CCc1cc(C(C)(C)C)c(O)c(C(C)(C)C)c1` gave a melting point of 82 to 85 °C.

`O=C(OCC(OC(=O)c1ccccc1)c1nc2c(C(F)(F)F)cccc2c(O)c1C(=O)Nc1nccs1)c1ccccc1` (stereo unspecified) yielded a melting point of 240 °C.

In turn, `CC(Cc1cc(C(C)(C)C)c(O)c(C(C)(C)C)c1)C(=O)Oc1ccc(C(=O)c2cc(C(C)(C)C)c(O)c(C(C)(C)C)c2)c(O)c1` (stereo unspecified) displayed a melting point of 163 to 165 °C.

For `Cc1nnc2n1-c1sc(CCC(=O)N3CCCCC3)cc1C(c1ccccc1Cl)=NC2C` (stereo unspecified), the melting point lay within 157 to 160 °C.

In the case of `CC(C)(C)OC(=O)N1CCC(c2noc3c(C(F)(F)F)cccc23)CC1`, the melting point was 111 to 113 °C.

The compound `COc1ccc(-c2ccc(CC3CC=CC3)cc2)cc1` showed a melting point of 75 to 77 °C.

In turn, `Nc1ccccc1OC1CCCC1` came in with a melting point of 87 to 87.5 °C.

On to `CCc1[nH]n(C2CCCC2)c2nc(-c3ccccc3)nc(=O)c1-2`, for which the melting point is 221 to 222 °C.

In turn, `COc1ccc(C2=C(C#N)c3ccc(OC)cc3CC2)cc1` displayed a melting point of 151 °C.

In turn, `NCC(O)(CCc1ccccc1)CCc1ccccc1` returned a melting point of 104 to 106 °C.

Take `COc1ccc2c3c1CCCN3C(C)(C)C=C2C`: the melting point is 87 to 88 °C.

`CN(CCCCNC(=O)c1ccc2ccccc2c1)C1CCc2ncsc2C1` (stereo unspecified) gave a melting point of 122 °C.

On to `CC(C)(C)c1ccc2oc(C(=O)CBr)cc2c1`, for which the melting point was in the range of 100 to 102 °C.

Compound `CN(C)CC1CCCCN1CC(=O)N1c2ccccc2C(=O)Nc2cccnc21` (stereo unspecified) came in with a melting point of 189 to 190 °C.

In the case of `NC(=O)C1CCc2[nH]c3cc(Cl)c(Cl)cc3c2C1` (stereo unspecified), the melting point lay in the range of 199 to 200 °C.

`CC1c2cccn2-c2ccc(Br)cc2N1S(=O)(=O)c1ccc(O)cc1` (stereo unspecified) had a melting point of 204 to 206 °C.

In turn, `N#Cc1cccc(C2C3=C(CCS3)NC3=C2C(=O)CCC3)c1` (single isomer, unassigned; (+)) returned a melting point of over 250 °C.

The compound `Cc1cc(C)c(C=NCc2ccc(Cl)nc2)c(C)c1` had a melting point of 47 to 48 °C.

Compound `C=C1N(CCC)C(=O)OC12CCN(CC=C(c1ccccc1)c1ccccc1)CC2` registered a melting point of 126 to 127 °C.
